Assay results published in patent publication US20090022803A1, “Oral Formulations For Delivery of Catecholic Butanes Including Ndga Compounds” (priority 2005, published 2009).

Assay: Stability of M4N formulations at room temperature (time to crystallized precipitation)
Assay type: physicochemical
Description: A 10 mL solution of M4N at a concentration of about 10 mg/mL in 40% BP-β-CD was made as follows. About 10 mL of the 40% HP-β-CD solution were added to a glass beaker containing a stir bar. The beaker was placed on a magnetic plate and the stir bar was set to stir at medium speed. About […] of M4N were slowly added to the 40% HP-β-CD in the center of the beaker with the aid of a spatula. The M4N/40% HP-β-CD mixture was stirred for 2 hr or until all M4N was uniformly suspended without any clumps being present. The M4N/40% HP-β-CD mixture was optionally heated at 80° C. for about 30 min. (or longer if a larger volume of solution was desired, for example, 1 hr at 80° C. for 100 mL of the M4N/HP-β-CD mixture), or longer as needed to ensure complete dissolution of M4N. […] The final M4N/40% HP-β-CD solution was stored at room temperature and was kept protected from light. This process may be scaled up or down to obtain the requisite volume or concentration of M4N. Formulations containing M4N in other cyclodextrin solutions may be similarly made, such as, for example, by substituting HP-β-CD in the process described above with other cyclodextrins.
A 100 mL solution of M4N at a concentration of about 25 mg/mL in PEG 300 was made as follows. About 100 mL of PEG 300 were added to a glass beaker containing a stir bar. The beaker was placed on a magnetic plate and the stir bar was set to stir at medium speed. About 2.5 g of M4N were slowly added to the PEG 300 in the center of the beaker with the aid of a spatula to prevent M4N from sticking to the beaker wall. The M4N/PEG 300 mixture was stirred for 24 hr or until all M4N had dissolved or was uniformly suspended without any clumps being present. The M4N/PEG 300 mixture was optionally heated at about 60° C. for about 30 min. (or longer if a larger volume of solution was desired, for example, 1 hr at 60° C. for 500 mL of the M4N/PEG 300 mixture), or longer as needed to ensure complete dissolution of M4N. […] If crystals formed, the M4N/PEG 300 solution could be heated again at 60° C. for about 1 hr, with stirring, on a hot magnetic plate until all M4N was dissolved back in solution. The final M4N/PEG 300 solution was stored at room temperature and was kept protected from light. This process may be scaled up or down to obtain the requisite volume or concentration of M4N. Formulations containing M4N in other PEGs may be similarly made, such as, for example, by substituting PEG 300 in the process described above with PEG 400 or PEG 400 monolaurate.
Formulations containing M4N in other water-insoluble lipids combined with non-ionic, ionic or amphipathic surfactants or water-soluble organic solvents may be similarly made, such as, for example, by substituting sesame oil in the process described above with corn oil, olive oil, soybean oil, peppermint oil, or mineral oil and substituting Tween® 20 with Tween® 80, TPGS, lecithin, PEG 300, PEG 400, PEG 400 monolaurate, glycerol, PVP, PG, or other solubilizing agents, and combinations thereof. Stability in reference to the clear liquid solutions herein refers to the time it takes to form crystallized precipitation in solution. A stable solution is one that is clear and free of particulates for an extended period of time.

SMILES: COc1ccc(C[C@@H](C)[C@@H](C)Cc2ccc(OC)c(OC)c2)cc1OC [Formulation M4N, meso-1,4-bis(3,4-dimethoxyphenyl)-2,3-dimethylbutane]
- Stability at Room Temperature (M4N 1 mg/mL suspension in 50% HP-β-CD, 0.5% CMC): >7 days
- Stability Time at Room Temperature (M4N 2.4 mg/mL, Sesame Oil, Tween ® 20 and Glycerol, 10% Oil emulsion in 90% saline): <1 days
- Stability Time at Room Temperature (M4N 2.9 mg/mL, Sesame Oil and Tween ® 20, 10% Oil emulsion in 90% saline): <3 days
- Stability at Room Temperature (M4N 3.13 mg/mL in 5% HP-β-CD, 12.5% PEG 300 (v/v)): <7 days
- Stability at Room Temperature (M4N 4.17 mg/mL in 6.7% HP-β-CD, 16.7% PEG 300 (v/v)): >7 days
- Stability at Room Temperature (M4N 6.25 mg/mL in 10% HP-β-CD, 25% PEG 300 (v/v)): >7 days
- Stability at Room Temperature (M4N 10 mg/mL in 30% HP-β-CD): <3 days
- Stability at Room Temperature (M4N 10 mg/mL in 32% HP-β-CD, 20% PEG 400 (v/v)): >7 days
- Stability at Room Temperature (M4N 10 mg/mL in 50% HP-β-CD): >7 days
- Stability at Room Temperature (M4N 10 mg/mL in 50% HP-β-CD in saline): >7 days
- Stability Time at Room Temperature (M4N 10 mg/mL in Peppermint Oil): >3 days
- stable at room temperature (M4N 10 mg/mL in Tween® 20): more than 7 days
- stable at room temperature (M4N 10 mg/mL in Tween® 80): more than 3 days
- Stability at Room Temperature (M4N 12.5 mg/mL in 12.5% HP-β-CD, 50% PEG 300 (v/v)): <1 days
- Stability at Room Temperature (M4N 12.5 mg/mL in 12.5% HP-β-CD, 50% PEG 400 (v/v)): <1 days
- Stability at Room Temperature (M4N 12.5 mg/mL in 15% HP-β-CD, 50% PEG 300 (v/v)): <7 days
- Stability at Room Temperature (M4N 12.5 mg/mL in 15% HP-β-CD, 50% PEG 400 (v/v)): <3 days
- Stability at Room Temperature (M4N 12.5 mg/mL in 20% HP-β-CD, 50% PEG 300 (v/v)): >7 days
- Stability at Room Temperature (M4N 12.5 mg/mL in 20% HP-β-CD, 50% PEG 400 (v/v)): <7 days
- Stability at Room Temperature (M4N 12.5 mg/mL in 30% HP-β-CD, 25% PEG 400 (v/v)): >7 days
- Stability at Room Temperature (M4N 12.9 mg/mL in 23% HP-β-CD, 43% PEG 400 (v/v)): >7 days
- Stability at Room Temperature (M4N 12.9 mg/mL in 23% HP-β-CD, 43 PEG 300 (v/v)): >7 days
- Stability at Room Temperature (M4N 13.3 mg/mL in 27% HP-β-CD, 33% PEG 300 (v/v)): >7 days
- Stability at Room Temperature (M4N 13.3 mg/mL in 27% HP-β-CD, 33% PEG 400 (v/v)): >7 days
- stable at room temperature (M4N 20 mg/mL in Tween® 20): more than 7 days
- Stability at Room Temperature (M4N 20 mg/mL suspension in 50% HP-β-CD, 0.5% CMC): >7 days
- Stability Time at Room Temperature (M4N 24.3 mg/mL in 75% Sesame Oil, 9% Tween ® 20, 16% Glycerol): <7 days
- Stability Time at Room Temperature (M4N 29 mg/mL in 89% Sesame Oil, 11% Tween ® 20): >7 days
- Stability Time at Room Temperature (M4N 40 mg/mL in 50% Peppermint Oil, 50% Tween ® 20): >3 days
- stable at room temperature (M4N 40 mg/mL in Tween® 20): less than 3 days
- Stability Time at Room Temperature (M4N 50 mg/mL in Camillia Oil): >7 days
- Stability Time at Room Temperature (M4N 50 mg/mL in Mineral Oil): <1 days
- stable at room temperature (M4N 50 mg/mL in Tween® 80): less than 1 day
- Stability Time at Room Temperature (M4N 60 mg/mL in 50% Peppermint Oil, 50% Tween ® 20): >3 days
- Stability Time at Room Temperature (M4N 60 mg/mL in Peppermint Oil): <3 days
- Stability at Room Temperature (M4N 60 mg/mL suspension in 50% HP-β-CD, 0.5% CMC): >7 days
- stable at room temperature (M4N 80 mg/mL in Tween® 20): less than 3 days
- Stability Time at Room Temperature (M4N 100 mg/mL in Peppermint Oil): <1 days
- Stability Time at Room Temperature (M4N 125 mg/mL in Peppermint Oil): <1 days
- stability of the suspension at room temperature (M4N in glycerol monooleate (Glymo), heated to 60° C., cooled): remained stable for two weeks
- stable at room temperature (M4N up to 60 mg/mL in 50% Tween® 20 and 50% PEG 400): more than 3 days
- Stability Time at Room Temperature (PEG 400 mono-laurate 100%, M4N 20 mg/mL): >3 days
- Stability Time at Room Temperature (PEG 400 mono-laurate 100%, M4N 50 mg/mL): <1 days
- Stability Time at Room Temperature (Propylene Glycol 100% (w/v), M4N 1 mg/mL): <1 days
- Stability Time at Room Temperature (Propylene Glycol 100% (w/v), M4N 10 mg/mL): <1 days
- Stability Time at Room Temperature (Propylene Glycol 100% (w/v), M4N 20 mg/mL): <1 days
- Stability at Room Temperature (TPGS 20% (w/v), M4N 60 mg/ml, suspension): >3 days
- Stability at Room Temperature (TPGS 20% (w/v), M4N 100 mg/ml, suspension): >3 days
